Here are results for one compound from ChEMBL document CHEMBL3832042, “DailyMed|setid=5d4f90d4-e535-4681-a863-3d774a2064e6 | ANASTROZOLE - anastrozole tablet|PD-Rx Pharmaceuticals, Inc”.

Where “and” joins values, the source holds several entries; their conditions need not be identical. Equal entries are not always repeated.

One may read the half-life as the time needed for the level to fall by half in the phase considered. A high value points to slow decline.

One series deals with Homo sapiens. In words: Evaluation of pharmacokinetic parameters for Anastrazole following multiple oral administration of Anastrazole to Caucasian and to Japanese female subjects. Format: ADME, organism-based. To be noted: in vivo, dose 1 mg, dosed compound id 24, dosed compound name ANASTROZOLE, gender female, regimen every 24h, study dosing duration 16 days, tissue Plasma.

Series [1] is described as follows: Evaluation of pharmacokinetic parameters for Anastrazole following single oral administration of Anastrazole to subjects under fatsed and fed conditions. To be noted: human, in vivo.

Regarding `CC(C)(C#N)c1cc(Cn2cncn2)cc(C(C)(C)C#N)c1` [ANASTROZOLE], the Cmin ss in the series on Homo sapiens is 30.4 ng/mL and 25.7 ng/mL. Besides, the half-life in series [1] was 50 h.
